From paper PMC11076491, “Allosteric regulation by c-di-AMP modulates a complete N-acetylglucosamine signaling cascade in Saccharopolyspora erythraea” (Nature Communications, 2024)

Experiments:
[1] = target: T1, ScoDasR (DasR^Sco) (Streptomyces coelicolor, UniProt Q9K492); assay: isothermal titration calorimetry; format: binding
T1 construct: full-length, His-tagged, expressed in E. coli BL21(DE3), Ni-NTA purified; GntR family, predominantly dimer
T1 sequence (Q9K492 1-254): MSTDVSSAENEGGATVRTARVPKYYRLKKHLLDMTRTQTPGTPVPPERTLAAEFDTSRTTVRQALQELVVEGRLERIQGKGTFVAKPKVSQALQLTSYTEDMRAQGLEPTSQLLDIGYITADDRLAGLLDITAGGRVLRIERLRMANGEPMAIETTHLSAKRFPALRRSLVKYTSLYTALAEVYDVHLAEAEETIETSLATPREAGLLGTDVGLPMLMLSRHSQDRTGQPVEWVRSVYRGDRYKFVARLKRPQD

[2] = target: T2, DasR (His-DasR) of S. erythraea (Saccharopolyspora erythraea, UniProt A4F723); assay: isothermal titration calorimetry; format: binding
T2 construct: gene SACE_0500; full-length, His-tagged, expressed in E. coli BL21(DE3), Ni-NTA purified; predominantly dimer (c-di-AMP promotes dimerization)
T2 sequence (A4F723 1-251): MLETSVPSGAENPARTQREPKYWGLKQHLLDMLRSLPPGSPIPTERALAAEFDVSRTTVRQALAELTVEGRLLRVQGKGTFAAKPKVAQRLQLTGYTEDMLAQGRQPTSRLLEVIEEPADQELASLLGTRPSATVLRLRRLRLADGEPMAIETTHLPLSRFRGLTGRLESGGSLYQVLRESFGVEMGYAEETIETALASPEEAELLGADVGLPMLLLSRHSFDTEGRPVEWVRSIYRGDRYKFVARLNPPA

[3] = tested on: DasR (Saccharopolyspora erythraea); assay: BLI; conditions: EMSA: 10 mM Tris-HCl pH 8.0, 25 mM MgCl2, 50 mM NaCl, 1 mM DTT, 1 mM EDTA, 0.01% NP-40, 50 ug/mL poly(dIdC), 10% glycerol, 18 C, 30 min, BLI: 10 mM HEPES pH …

Row | Kd [1] [µM] | Kd [2] [µM] | Molecule | Kd ([3]; 100 uM c-di-AMP) [µM] | Kd ([3]; no c-di-AMP) [µM]
1 | 23 | 26.8 | Nc1ncnc2c1ncn2[C@@H]1O[C@@H]2COP(=O)(O)O[C@H]3[C@@H](O)[C@H](n4cnc5c(N)ncnc54)O[C@@H]3COP(=O)(O)O[C@H]2[C@H]1O [c-di-AMP] | – | –
2 | – | – | nagA promoter | 0.44 | 19
